Assays:
NCI-H460 = experiment: Cytotoxicity against human H460 cells assessed as stimulation of topoisomerase 1-mediated DNA cleavage; format: functional, cell-based
DNA topoisomerase 1 = molecular target: T1, DNA topoisomerase 1 (Homo sapiens, UniProt P11387); experiment: Binding affinity to topoisomerase 1
T1 sequence (P11387 whole entry): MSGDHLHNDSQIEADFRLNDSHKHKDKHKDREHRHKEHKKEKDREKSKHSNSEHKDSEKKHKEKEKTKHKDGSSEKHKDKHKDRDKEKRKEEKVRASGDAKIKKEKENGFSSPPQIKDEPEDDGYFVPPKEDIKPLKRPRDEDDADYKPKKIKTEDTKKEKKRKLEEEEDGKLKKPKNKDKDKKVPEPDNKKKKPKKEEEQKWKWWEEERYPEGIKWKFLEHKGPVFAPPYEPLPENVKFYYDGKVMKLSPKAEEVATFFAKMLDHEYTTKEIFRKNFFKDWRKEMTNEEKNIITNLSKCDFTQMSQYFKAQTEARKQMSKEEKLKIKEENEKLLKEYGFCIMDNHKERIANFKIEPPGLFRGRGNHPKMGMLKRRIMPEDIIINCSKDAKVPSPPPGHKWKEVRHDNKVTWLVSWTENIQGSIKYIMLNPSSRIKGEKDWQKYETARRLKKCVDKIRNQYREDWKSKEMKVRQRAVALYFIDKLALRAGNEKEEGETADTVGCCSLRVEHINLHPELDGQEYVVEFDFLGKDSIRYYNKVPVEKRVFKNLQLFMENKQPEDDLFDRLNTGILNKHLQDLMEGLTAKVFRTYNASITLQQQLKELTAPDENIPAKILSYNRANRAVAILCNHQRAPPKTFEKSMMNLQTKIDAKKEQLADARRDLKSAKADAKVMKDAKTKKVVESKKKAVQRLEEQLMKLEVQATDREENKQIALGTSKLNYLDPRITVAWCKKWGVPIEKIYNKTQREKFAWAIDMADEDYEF

Wee1-like protein kinase = Wee1-like protein kinase (Homo sapiens, UniProt P30291); experiment: Binding affinity to weel kinase
Sequence of Wee1-like protein kinase (P30291 whole entry): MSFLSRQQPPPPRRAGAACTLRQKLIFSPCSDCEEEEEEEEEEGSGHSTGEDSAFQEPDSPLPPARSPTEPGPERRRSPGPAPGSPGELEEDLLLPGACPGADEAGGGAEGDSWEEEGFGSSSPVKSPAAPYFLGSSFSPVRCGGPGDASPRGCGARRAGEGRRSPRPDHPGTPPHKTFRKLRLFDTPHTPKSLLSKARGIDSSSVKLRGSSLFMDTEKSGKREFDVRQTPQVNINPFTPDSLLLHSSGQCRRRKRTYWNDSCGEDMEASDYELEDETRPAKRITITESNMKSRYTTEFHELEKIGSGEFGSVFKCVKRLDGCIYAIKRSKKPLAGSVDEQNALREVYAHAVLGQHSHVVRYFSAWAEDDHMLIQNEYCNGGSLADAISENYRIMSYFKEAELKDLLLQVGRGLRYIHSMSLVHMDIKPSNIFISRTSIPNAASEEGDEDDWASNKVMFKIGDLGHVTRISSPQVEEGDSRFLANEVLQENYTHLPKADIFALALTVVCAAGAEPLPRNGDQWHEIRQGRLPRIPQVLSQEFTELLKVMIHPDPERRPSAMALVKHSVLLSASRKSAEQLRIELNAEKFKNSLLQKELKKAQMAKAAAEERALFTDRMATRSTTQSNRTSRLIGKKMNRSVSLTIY

| SMILES | IC50 (NCI-H460) [µM] | Kd (DNA topoisomerase 1) [µM] | Kd (Wee1-like protein kinase) [µM] |
| --- | --- | --- | --- |
| CC[C@@]1(O)C(=O)OCc2c1cc1n(c2=O)Cc2cc3c(CN(C)C)c(O)ccc3nc2-1 [TOPOTECAN] | 1.38 |  |  |
| CC[C@@]1(O)C(=O)OCc2c1cc1n(c2=O)Cc2c-1nc1ccccc1c2/C=N\OCCCO | 0.4 | 0.00265 |  |
| CC[C@@]1(O)C(=O)OCc2c1cc1n(c2=O)Cc2c-1nc1ccccc1c2/C=N/c1ccccc1C | 0.4 | 0.000296 |  |
| Cc1cc(=O)c2c(O)cc3c(c2o1)C(=O)c1c(O)cc(O)cc1C3=O [TOPOPYRONE C] |  |  | 0.00135 |

Reference: ChEMBL document CHEMBL1811875, “Inverse virtual screening of antitumor targets: pilot study on a small database of natural bioactive compounds” (J Nat Prod, 2011)
